Data: PMC9067930 (Science Advances, 2022)
Read-outs that look alike come from different tables or passages of the source. Each block holds one compound with its values, some of them ahead of it. No end group written: not given here.

Assays:
Y2R [1] = target: T1, Y2R (Homo sapiens, UniProt P49146); type: binding; details: high- and low-affinity state
T1 sequence (P49146 1-381): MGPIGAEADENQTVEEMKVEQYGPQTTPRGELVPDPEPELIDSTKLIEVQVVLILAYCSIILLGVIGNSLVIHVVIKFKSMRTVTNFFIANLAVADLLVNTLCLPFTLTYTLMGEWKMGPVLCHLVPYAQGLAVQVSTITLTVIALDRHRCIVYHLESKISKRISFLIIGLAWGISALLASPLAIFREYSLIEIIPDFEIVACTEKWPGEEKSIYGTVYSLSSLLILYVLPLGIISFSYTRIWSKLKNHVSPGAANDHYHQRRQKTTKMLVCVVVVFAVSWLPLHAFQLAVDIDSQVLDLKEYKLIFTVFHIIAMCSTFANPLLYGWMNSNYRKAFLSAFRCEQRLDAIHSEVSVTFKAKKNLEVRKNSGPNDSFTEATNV

[2] = target: Nluc-Y1R, wild type (human) (UniProt P25929); assay: FRET or BRET
[3] = target: Nluc-Y4R, wild type (human) (UniProt P50391); assay: FRET or BRET
[4] = target: Nluc-Y4R, wild type (human) (UniProt P50391); assay: FRET or BRET; remark: listed apart in the source
Nluc-Y4R Q^5.46A (human) = Nluc-Y4R Q^5.46A (human) (UniProt P50391); assay: FRET or BRET
Y2R [5] = details: cited from earlier work
Y1R = details: cited from earlier work
Y4R [6] = details: cited from earlier work
Y4R [7] = details: cited from earlier work; remark: listed apart in the source

Sequence of Nluc-Y4R, wild type (human) (P50391 whole entry): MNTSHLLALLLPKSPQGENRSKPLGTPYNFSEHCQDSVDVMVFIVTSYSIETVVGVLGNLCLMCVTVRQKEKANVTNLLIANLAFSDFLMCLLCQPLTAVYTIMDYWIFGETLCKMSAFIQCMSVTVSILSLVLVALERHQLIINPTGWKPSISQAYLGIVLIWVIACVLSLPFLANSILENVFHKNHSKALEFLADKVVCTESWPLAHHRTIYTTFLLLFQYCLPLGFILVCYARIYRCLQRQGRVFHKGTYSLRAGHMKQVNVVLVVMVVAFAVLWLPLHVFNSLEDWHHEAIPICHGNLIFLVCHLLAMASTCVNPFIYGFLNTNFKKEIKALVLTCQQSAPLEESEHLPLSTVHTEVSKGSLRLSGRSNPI
Sequence of Nluc-Y1R, wild type (human) (P25929 whole entry): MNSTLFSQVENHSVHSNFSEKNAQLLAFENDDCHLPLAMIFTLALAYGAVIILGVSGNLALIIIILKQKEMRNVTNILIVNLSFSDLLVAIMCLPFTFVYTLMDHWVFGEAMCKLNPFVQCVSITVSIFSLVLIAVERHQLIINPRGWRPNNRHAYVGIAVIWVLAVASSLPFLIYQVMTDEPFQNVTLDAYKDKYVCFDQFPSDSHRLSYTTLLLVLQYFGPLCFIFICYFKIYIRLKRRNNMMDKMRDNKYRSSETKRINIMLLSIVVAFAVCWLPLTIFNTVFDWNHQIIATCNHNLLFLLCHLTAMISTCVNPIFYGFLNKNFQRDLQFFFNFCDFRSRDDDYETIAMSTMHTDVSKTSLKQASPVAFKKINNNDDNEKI
Sequence of Nluc-Y4R Q^5.46A (human) (P50391 whole entry): as the sequence (P50391 whole entry) above

- affinity (Ki) in both states (Y2R [1]): essentially the same affinity
Compound: CCN(CC)C(=O)C(c1ccccc1)N1CCN(c2ccc(NC(=O)c3ccccc3-c3cccnc3)cc2F)CC1 (stereo not drawn) [JNJ-31020028]

- KD,2 (low-affinity state) [2]: 126 nM
Compound: K18(TAMRA)-NPY (peptide)

- KD,1 (high-affinity state) [3]: 26 nM
- KD,1 (high-affinity state) [4]: 18 nM
- fold reduction of affinity against wild-type Y4R (Nluc-Y4R Q^5.46A (human)): 100 fold
Compound: K22(TAMRA),Nle17,30-PP (peptide)

Compound: NPY mutant T32A
- binding affinity (Y2R [5]): loss of binding affinity
- binding affinity (Y1R; Y1R): loss of binding affinity
- binding affinity (Y4R [6]): loss of binding affinity

Compound: NPY(2–36): truncated NPY analog
- reduction of affinity and activity, respectively (Y1R; Y1R): more than 50 fold

Compound: NPY(3–36): N-terminally truncated NPY analog
- affinity (Y2R [5]): subnanomolar affinity
- reduction of affinity and activity, respectively (Y1R; Y1R): more than 50 fold

Compound: NPY(13–36): N-terminally truncated NPY analog
- affinity (Y2R [5]): subnanomolar affinity

Compound: NPY(18–36): N-terminally truncated NPY analog
- affinity (Y2R [5]): subnanomolar affinity

Compound: NPY(22–36): N-terminally truncated NPY analog
- affinity (Y2R [5]): subnanomolar affinity

Compound: PP(2–36): N-terminally truncated PP (PLEPVYPGDNATPEQMAQYAADLRRYINMLTRPRY; ends and bridges not checked; UniProt P01298 31-65, looked up, fragment)
- functional impairment (Y4R [7]): limited functional impairment

Compound: PYY: 36-residue C-terminally amidated neuropeptide
- binding (Y1R; Y1R F286A): marked loss

Compound: Q34G variant of NPY
- loss of binding affinity compared to NPY (Y1R; Y1R): 15 fold

Compound: Q34P-substituted analog of NPY
- binding (Y2R [5]): not tolerated
- affinity (Y1R; Y1R): wild-type affinity
- binding affinity (Y1R; Y1R, exchange of Q34 by proline): unchanged binding affinity
- binding (Y4R [6]): improved binding
